Patent US20230053540A1, “TREATMENT OF LIVER INJURY” (Massachusetts Institute of Technology, priority 2019, published 2023)

Test system: hepatocytes
Assay: Seq-Well scRNA-Seq of hepatocytes after APAP overdose (signature scores, DEG vs untreated)
Type: in vivo, mouse

CC(=O)Nc1ccc(O)cc1 [APAP, acetaminophen]
Ubb A48logFC (A48 vs UT): −0.2644 | 0610005C13Rik avg_logFC (A96 vs untreated (UT)): 0.2979 | 0610005C13Rik pct.1 (A96 vs untreated (UT)): 0.816 | 0610007P14Rik avg_logFC (A96 vs untreated (UT)): 0.2519 | 0610007P14Rik pct.1 (A96 vs untreated (UT)): 0.512 | 8430408G22Rik avg_logFC (A96 vs untreated (UT)): 0.2527 | 8430408G22Rik pct.1 (A96 vs untreated (UT)): 0.559 | Abca6 avg_logFC (A96 vs untreated (UT)): 0.2823 | Abca6 pct.1 (A96 vs untreated (UT)): 0.686 | Abcb4 avg_logFC (A96 vs untreated (UT)): 0.4758 | Abcb4 pct.1 (A96 vs untreated (UT)): 0.878 | Abcc3 pct.1 (A96 vs untreated (UT)): 0.733 | Acad11 avg_logFC (A96 vs untreated (UT)): 0.2578 | Acad11 pct.1 (A96 vs untreated (UT)): 0.711 | Acadl avg_logFC (A96 vs untreated (UT)): 0.2937 | Acadl pct.1 (A96 vs untreated (UT)): 0.8 | Acat1 avg_logFC (A96 vs untreated (UT)): 0.3485 | Acat1 pct.1 (A96 vs untreated (UT)): 0.917 | Acbd5 avg_logFC (A96 vs untreated (UT)): 0.4341 | Acbd5 pct.1 (A96 vs untreated (UT)): 0.87 | Acot1 avg_logFC (A96 vs untreated (UT)): 0.298 | Acot1 pct.1 (A96 vs untreated (UT)): 0.459 | Acot4 avg_logFC (A96 vs untreated (UT)): 0.268 | Acot4 pct.1 (A96 vs untreated (UT)): 0.328 | Acot12 avg_logFC (A96 vs untreated (UT)): 0.2957 | Acot12 pct.1 (A96 vs untreated (UT)): 0.65 | Acsl1 avg_logFC (A96 vs untreated (UT)): 0.2915 | Acsl1 pct.1 (A96 vs untreated (UT)): 0.977 | Actn4 avg_logFC (A96 vs untreated (UT)): 0.2609 | Actn4 pct.1 (A96 vs untreated (UT)): 0.6 | Agpat6 avg_logFC (A96 vs untreated (UT)): 0.4098 | Agpat6 pct.1 (A96 vs untreated (UT)): 0.743 | Agt avg_logFC (A96 vs untreated (UT)): 0.3765 | Agt pct.1 (A96 vs untreated (UT)): 0.912 | Akr1c6 avg_logFC (A96 vs untreated (UT)): −0.359 | Akr1c6 pct.1 (A96 vs untreated (UT)): 0.967 | Akr1d1 avg_logFC (A96 vs untreated (UT)): 0.3787 | Akr1d1 pct.1 (A96 vs untreated (UT)): 0.721 | Aldh2 avg_logFC (A96 vs untreated (UT)): 0.304 | Aldh2 pct.1 (A96 vs untreated (UT)): 0.995 | Aldh3a2 avg_logFC (A96 vs untreated (UT)): 0.4933 | Aldh3a2 pct.1 (A96 vs untreated (UT)): 0.687 | Aldh6a1 avg_logFC (A96 vs untreated (UT)): 0.2669 | Aldh6a1 pct.1 (A96 vs untreated (UT)): 0.829 | Aldh9a1 avg_logFC (A96 vs untreated (UT)): 0.3633 | Aldh9a1 pct.1 (A96 vs untreated (UT)): 0.884 | Amy1 avg_logFC (A96 vs untreated (UT)): 0.4212 | Amy1 pct.1 (A96 vs untreated (UT)): 0.831 | Angptl3 avg_logFC (A96 vs untreated (UT)): 0.6936 | Angptl3 pct.1 (A96 vs untreated (UT)): 0.998 | Apoc1 avg_logFC (A96 vs untreated (UT)): 0.5008 | Apoc1 pct.1 (A96 vs untreated (UT)): 1 | Apoc2 avg_logFC (A96 vs untreated (UT)): 0.5187 | Apoc2 pct.1 (A96 vs untreated (UT)): 0.901 | Apoc3 avg_logFC (A96 vs untreated (UT)): 0.3002 | Apoe avg_logFC (A96 vs untreated (UT)): 0.327 | Apoe pct.1 (A96 vs untreated (UT)): 1 | Apoh avg_logFC (A96 vs untreated (UT)): 0.3467 | Apoh pct.1 (A96 vs untreated (UT)): 0.998 | Apol7a avg_logFC (A96 vs untreated (UT)): 0.2716 | Apol7a pct.1 (A96 vs untreated (UT)): 0.559 | Aqp9 avg_logFC (A96 vs untreated (UT)): 0.3346 | Aqp9 pct.1 (A96 vs untreated (UT)): 0.801 | Arl4a avg_logFC (A96 vs untreated (UT)): 0.2911 | Arl4a pct.1 (A96 vs untreated (UT)): 0.517 | Asl avg_logFC (A96 vs untreated (UT)): 0.4141 | Asl pct.1 (A96 vs untreated (UT)): 0.896 | Atf5 avg_logFC (A96 vs untreated (UT)): 0.2708 | Atf5 pct.1 (A96 vs untreated (UT)): 0.745 | Atp5k avg_logFC (A96 vs untreated (UT)): 0.4068 | Atp5k pct.1 (A96 vs untreated (UT)): 0.837 | Atp5h avg_logFC (A96 vs untreated (UT)): 0.3114 | Atp5h pct.1 (A96 vs untreated (UT)): 0.848 | Atxn7l3b avg_logFC (A96 vs untreated (UT)): 0.2828 | Atxn7l3b pct.1 (A96 vs untreated (UT)): 0.654 | BC005537 avg_logFC (A96 vs untreated (UT)): 0.2869 | BC005537 pct.1 (A96 vs untreated (UT)): 0.611 | Baat avg_logFC (A96 vs untreated (UT)): 0.2625 | Baat pct.1 (A96 vs untreated (UT)): 0.862 | Bche avg_logFC (A96 vs untreated (UT)): 0.3287 | Bche pct.1 (A96 vs untreated (UT)): 0.588 | Bnip3 avg_logFC (A96 vs untreated (UT)): 0.3443 | Bnip3 pct.1 (A96 vs untreated (UT)): 0.716 | Brap avg_logFC (A96 vs untreated (UT)): 0.3113 | Brap pct.1 (A96 vs untreated (UT)): 0.642 | Brd2 avg_logFC (A96 vs untreated (UT)): 0.3104 | Brd2 pct.1 (A96 vs untreated (UT)): 0.601 | Cbr1 avg_logFC (A96 vs untreated (UT)): 0.2829 | Cbr1 pct.1 (A96 vs untreated (UT)): 0.591 | Cd36 avg_logFC (A96 vs untreated (UT)): 0.3312 | Cd36 pct.1 (A96 vs untreated (UT)): 0.299 | Cdo1 avg_logFC (A96 vs untreated (UT)): 0.5679 | Cdo1 pct.1 (A96 vs untreated (UT)): 0.998 | Ces1c avg_logFC (A96 vs untreated (UT)): 0.3583 | Ces1c pct.1 (A96 vs untreated (UT)): 1 | Ces1e avg_logFC (A96 vs untreated (UT)): 0.2944 | Ces1e pct.1 (A96 vs untreated (UT)): 0.71 | Ces3a avg_logFC (A96 vs untreated (UT)): −0.2844 | Ces3a pct.1 (A96 vs untreated (UT)): 0.97 | Ces3b avg_logFC (A96 vs untreated (UT)): −0.3398 | Ces3b pct.1 (A96 vs untreated (UT)): 0.685 | Ces1d avg_logFC (A96 vs untreated (UT)): 0.4277 | Ces1d pct.1 (A96 vs untreated (UT)): 0.977 | Chchd10 avg_logFC (A96 vs untreated (UT)): 0.608 | Chchd10 pct.1 (A96 vs untreated (UT)): 0.994 | Chp1 avg_logFC (A96 vs untreated (UT)): 0.2687 | Chp1 pct.1 (A96 vs untreated (UT)): 0.687 | Cox5a avg_logFC (A96 vs untreated (UT)): 0.3398 | Cox5a pct.1 (A96 vs untreated (UT)): 0.813 | Cox6a1 avg_logFC (A96 vs untreated (UT)): 0.2517 | Cox6a1 pct.1 (A96 vs untreated (UT)): 0.943 | Cox8a avg_logFC (A96 vs untreated (UT)): 0.3089 | Cox8a pct.1 (A96 vs untreated (UT)): 0.737 | Cp avg_logFC (A96 vs untreated (UT)): 0.2826 | Cp pct.1 (A96 vs untreated (UT)): 0.993 | Cpeb4 avg_logFC (A96 vs untreated (UT)): 0.3418 | Cpeb4 pct.1 (A96 vs untreated (UT)): 0.527 | Cpox avg_logFC (A96 vs untreated (UT)): 0.3326 | Cpox pct.1 (A96 vs untreated (UT)): 0.634 | Cpt1a avg_logFC (A96 vs untreated (UT)): 0.3742 | Cpt1a pct.1 (A96 vs untreated (UT)): 0.837 | Crat avg_logFC (A96 vs untreated (UT)): 0.2624 | Crat pct.1 (A96 vs untreated (UT)): 0.389 | Creg1 avg_logFC (A96 vs untreated (UT)): 0.2586 | Creg1 pct.1 (A96 vs untreated (UT)): 0.985 | Crot avg_logFC (A96 vs untreated (UT)): 0.3326 | Crot pct.1 (A96 vs untreated (UT)): 0.989 | Csde1 avg_logFC (A96 vs untreated (UT)): 0.2567 | Csde1 pct.1 (A96 vs untreated (UT)): 0.742 | Ctage5 avg_logFC (A96 vs untreated (UT)): 0.3217 | Ctage5 pct.1 (A96 vs untreated (UT)): 0.837 | Cxcl12 avg_logFC (A96 vs untreated (UT)): 0.3372 | Cxcl12 pct.1 (A96 vs untreated (UT)): 0.635 | Cyp4a10 avg_logFC (A96 vs untreated (UT)): 1.12 | Cyp4a10 pct.1 (A96 vs untreated (UT)): 0.974 | Cyp4a14 avg_logFC (A96 vs untreated (UT)): 1.601 | Cyp4a14 pct.1 (A96 vs untreated (UT)): 0.975 | D4Wsu53e avg_logFC (A96 vs untreated (UT)): 0.3032 | D4Wsu53e pct.1 (A96 vs untreated (UT)): 0.597 | D17Wsu92e avg_logFC (A96 vs untreated (UT)): 0.3581 | D17Wsu92e pct.1 (A96 vs untreated (UT)): 0.771 | Ddx3x avg_logFC (A96 vs untreated (UT)): 0.2899 | Ddx3x pct.1 (A96 vs untreated (UT)): 0.701 | Decr1 avg_logFC (A96 vs untreated (UT)): 0.3241 | Decr1 pct.1 (A96 vs untreated (UT)): 0.808 | Decr2 avg_logFC (A96 vs untreated (UT)): 0.3728 | Decr2 pct.1 (A96 vs untreated (UT)): 0.813 | Dennd5b avg_logFC (A96 vs untreated (UT)): 0.2871 | Dennd5b pct.1 (A96 vs untreated (UT)): 0.548 | Dhcr24 avg_logFC (A96 vs untreated (UT)): 0.3842 | Dhcr24 pct.1 (A96 vs untreated (UT)): 0.933 | Dhdh avg_logFC (A96 vs untreated (UT)): 0.2837 | Dhdh pct.1 (A96 vs untreated (UT)): 0.734 | Dpys avg_logFC (A96 vs untreated (UT)): 0.2626 | Dpys pct.1 (A96 vs untreated (UT)): 0.824 | Dusp6 avg_logFC (A96 vs untreated (UT)): 0.3249 | Dusp6 pct.1 (A96 vs untreated (UT)): 0.476 | Ei24 avg_logFC (A96 vs untreated (UT)): 0.2718 | Ei24 pct.1 (A96 vs untreated (UT)): 0.667 | Eif4g2 avg_logFC (A96 vs untreated (UT)): 0.2838 | Eif4g2 pct.1 (A96 vs untreated (UT)): 0.812 | Elovl5 avg_logFC (A96 vs untreated (UT)): 0.3232 | Elovl5 pct.1 (A96 vs untreated (UT)): 0.765 | Erbb2ip avg_logFC (A96 vs untreated (UT)): 0.2553 | Erbb2ip pct.1 (A96 vs untreated (UT)): 0.561 | Etfdh avg_logFC (A96 vs untreated (UT)): 0.2802 | Etfdh pct.1 (A96 vs untreated (UT)): 0.811 | F5 avg_logFC (A96 vs untreated (UT)): 0.3557 | Fmo1 avg_logFC (A96 vs untreated (UT)): 0.264 | Fmo1 pct.1 (A96 vs untreated (UT)): 0.606 | Fth1 avg_logFC (A96 vs untreated (UT)): 0.3226 | Fth1 pct.1 (A96 vs untreated (UT)): 0.993 | G0s2 avg_logFC (A96 vs untreated (UT)): 0.2947 | G0s2 pct.1 (A96 vs untreated (UT)): 0.525 | Gabarapl1 avg_logFC (A96 vs untreated (UT)): 0.2984 | Gabarapl1 pct.1 (A96 vs untreated (UT)): 0.881 | Gclc avg_logFC (A96 vs untreated (UT)): 0.2707 | Gclc pct.1 (A96 vs untreated (UT)): 0.839 | Gclm avg_logFC (A96 vs untreated (UT)): 0.3282 | Gclm pct.1 (A96 vs untreated (UT)): 0.865 | Gfra1 avg_logFC (A96 vs untreated (UT)): 0.2571 | Gfra1 pct.1 (A96 vs untreated (UT)): 0.687 | Gm2a avg_logFC (A96 vs untreated (UT)): 0.3164 | Gm2a pct.1 (A96 vs untreated (UT)): 0.587 | Gm13775 avg_logFC (A96 vs untreated (UT)): −1.05 | Gm13775 pct.1 (A96 vs untreated (UT)): 0.3 | Gpld1 avg_logFC (A96 vs untreated (UT)): 0.3039 | Gpld1 pct.1 (A96 vs untreated (UT)): 0.748 | Grn avg_logFC (A96 vs untreated (UT)): 0.3731 | Grn pct.1 (A96 vs untreated (UT)): 0.629 | Gsta2 avg_logFC (A96 vs untreated (UT)): 0.3111 | Gsta2 pct.1 (A96 vs untreated (UT)): 0.522 | Gstm3 avg_logFC (A96 vs untreated (UT)): −0.5668 | Gstm3 pct.1 (A96 vs untreated (UT)): 0.23 | Gstt3 avg_logFC (A96 vs untreated (UT)): 0.3379 | Gstt3 pct.1 (A96 vs untreated (UT)): 0.541 | Gyk avg_logFC (A96 vs untreated (UT)): 0.4334 | Gyk pct.1 (A96 vs untreated (UT)): 0.616 | Hadh avg_logFC (A96 vs untreated (UT)): 0.2626 | Hadh pct.1 (A96 vs untreated (UT)): 0.774 | Hamp2 avg_logFC (A96 vs untreated (UT)): 0.3052 | Hamp2 pct.1 (A96 vs untreated (UT)): 0.203
